What is called IC50 is the concentration that inhibits the measured activity by half.

The subject of one series is E. coli NCTC 13476. Kind of series: MIC, broth microdilution (CLSI). In kind it is cell-based, Escherichia coli. The conditions noted are these: mode of three experiments.
For series [1], the system named is Acinetobacter baumannii NCTC 13420. Kind of series: MIC, broth microdilution (CLSI). In kind it is cell-based. Particulars: A. baumannii NCTC 13420, 16-20 h, mode of three experiments.
The test system of series [2] is Klebsiella pneumoniae ATCC 700603. Kind of series: MIC, broth microdilution (CLSI). In kind it is cell-based. Particulars: K. pneumoniae ATCC 700603, 16-20 h, mode of three experiments.
Series [3] deals with Escherichia coli ATCC 25922. Kind of series: MIC, broth microdilution (CLSI). Format: cell-based. Particulars: E. coli ATCC 25922, 16-20 h, mode of three experiments. (In general: In broth dilution the organism is exposed to a series of concentrations in liquid medium.)
The test system of series [4] is Pseudomonas aeruginosa ATCC 27853. Kind of series: MIC, broth microdilution (CLSI). In kind it is cell-based. The conditions noted are these: P. aeruginosa ATCC 27853, 16-20 h, mode of three experiments.
Series [5] concerns Acinetobacter baumannii ATCC 19606. Kind of series: MIC, broth microdilution (CLSI). Format: cell-based. Particulars: A. baumannii ATCC 19606, 16-20 h, mode of three experiments.
The subject of series [6] is Streptococcus pneumoniae ATCC 49619. Kind of series: MIC, broth microdilution (CLSI). Format: cell-based. The conditions noted are these: S. pneumoniae ATCC 49619, 16-20 h, mode of three experiments.
The subject of series [7] is Haemophilus influenzae ATCC 49247. Kind of series: MIC, broth microdilution (CLSI). The conditions noted are these: H. influenzae ATCC 49247, 16-20 h, mode of three experiments. In kind it is cell-based.
The next series concerns E. coli MG1655 WT. Kind of series: MIC, broth microdilution (CLSI). Format: cell-based, Escherichia coli.
The subject of series [8] is Staphylococcus aureus ATCC 29213. Kind of series: MIC, broth microdilution (CLSI). Format: cell-based. The conditions noted are these: S. aureus ATCC 29213, 16-20 h, mode of three experiments.
The next series has as its system E. coli MG1655 D87G. In kind it is cell-based, Escherichia coli. Particulars: compared to the isogenic parent strain E. coli MG1655; D87G mutation on DNA gyrase subunit GyrA.
Another series has as its system E. coli ATCC BAA-2452. Kind of series: MIC, broth microdilution (CLSI). In kind it is cell-based, Escherichia coli. Particulars: 16-20 h, mode of three experiments.
The next series relates to E. coli MG1655 S83L. Format: cell-based, Escherichia coli. The conditions noted are these: compared to the isogenic parent strain E. coli MG1655; S83L mutation on DNA gyrase subunit GyrA.
The test system of series [9] is Enterobacter cloacae NCTC 13406. Kind of series: MIC, broth microdilution (CLSI). Format: cell-based. Particulars: E. cloacae NCTC 13406, 16-20 h, mode of three experiments.
The next series concerns HepG2 ATCC HB-8065. Kind of series: Human cell viability assay (CellTiter-Glo). Particulars: for IC50 HepG2 / IC50: HepG2 cell viability, 24 h with compound, range 1-128 μg/mL; for IC50: Homo sapiens. Format: cell-based. How it is done:
Compounds are assessed for potential non-specific cytotoxic effects against a human hepatic cell line (HepG2 ATCC HB-8065). HepG2 cells are seeded at 20,000 cells/well in 96-well microtitre plates in minimal essential medium (MEM) supplemented with a final concentration of 10% FBS and 1 mM sodium pyruvate. After 24 h compound dilutions are prepared in Dulbecco's minimum essential media (DMEM) supplemented with final concentrations of 0.001% FBS, 0.3% bovine albumin and 0.02% HEPES and added to cells. Compounds are tested in two-fold serial dilutions over a final concentration range of 1-128 μg/mL in a final DMSO concentration of 1% vol/vol. Chlorpromazine is used as a positive control. Cells are incubated with compound at 37° C. and 5% CO2 for a further 24 h, after which time the CellTiter-Glo reagent (Promega) is added. Luminescence is measured on a BMG Omega plate reader. Data are analysed using GraphPad Prism software to determine the concentration of compound that inhibits cell viability by fifty percent (IC50).

Series [10] deals with Mycobacterium smegmatis ATCC 19420. Kind of series: MIC, broth microdilution (CLSI). In kind it is cell-based. Particulars: M. smegmatis ATCC 19420, 16-20 h, mode of three experiments.
Setting [11] is: Acinetobacter baumannii, NCTC13420, read-out: MIC.
[12] abbreviates: Klebsiella pneumoniae, ATCC700603, read-out: MIC.
The mark [13] stands for this setting: Escherichia coli, ATCC25922, read-out: MIC.
Where [14] appears, read: Pseudomonas aeruginosa, ATCC27853, read-out: MIC.
Where [15] appears, read: Streptococcus pneumoniae, ATCC49619, read-out: MIC.
The mark [16] stands for this setting: Haemophilus influenzae, ATCC49247, read-out: MIC.
Where [17] appears, read: Staphylococcus aureus, ATCC29213, read-out: MIC.
The mark [18] stands for this setting: Enterobacter cloacae, NCTC13406, read-out: MIC.
The mark [19] stands for this setting: Escherichia coli, NCTC13476, 16-20 h, read-out: MIC.
Setting [20] is: Acinetobacter baumannii, ATCC19606, read-out: MIC.
The mark [21] stands for this setting: Escherichia coli, read-out: MIC.

Structures are written as SMILES. ≈ marks a conversion by molar mass, not a printed value. Like-named read-outs stand apart in the source and are kept apart here.

On to `N#Cc1ccc2ccc(=O)n(CCN3C[C@H]4CN(c5ccc6c(n5)NC(=O)CO6)C(=O)O[C@H]4C3)c2c1` (relative stereo) [Compound 10, rel-1-{2-[(4aS*,7aR*-2-oxo-3-{3-oxo-2H,3H,4H-pyrido[3,2-b][1,4]oxazin-6-yl}-octahydropyrrolo[3,4-e][1,3]oxazin-6-yl]ethyl}-2-oxo-1,2-dihydroquinoline-7-carbonitrile], for which the MIC entry with E. coli NCTC 13476 (16-20 h) is on record as “B (a MIC of from 1 to 10 is assigned the letter B)”; in series [1], “B (a MIC of from 1 to 10 is assigned the letter B)”; in [2] it was “B (a MIC of from 1 to 10 is assigned the letter B)”; in series [3] it was “A (an MIC (in μg/mL) of less or equal to 1 is assigned the letter A)”; in series [4], “B (a MIC of from 1 to 10 is assigned the letter B)”; in series [5], “A (an MIC (in μg/mL) of less or equal to 1 is assigned the letter A)”. Further, the MIC result is recorded as “A (an MIC (in μg/mL) of less or equal to 1 is assigned the letter A)” in series [6]; “A (an MIC (in μg/mL) of less or equal to 1 is assigned the letter A)” in series [7]; “A (an MIC (in μg/mL) of less or equal to 1 is assigned the letter A)” against E. coli MG1655 WT (E. coli MG1655 WT, 16-20 h, mode of three experiments); “A (an MIC (in μg/mL) of less or equal to 1 is assigned the letter A)” in series [8]; “A (an MIC (in μg/mL) of less or equal to 1 is assigned the letter A)” against E. coli ATCC BAA-2452; “A (an MIC (in μg/mL) of less or equal to 1 is assigned the letter A)” in series [9]. Also, the “Fold increase in MIC against E. coli MG1655 D87G” value with E. coli MG1655 D87G came to 1 fold. In addition, the “Fold increase in MIC against E. coli MG1655 S83L” value in the series on E. coli MG1655 S83L amounted to 1 fold. Moreover, in the series with HepG2 ATCC HB-8065, the “toxicity against HepG2 human hepatic cell line (in words)” value is “no detectable toxicity”. Besides, in the series with HepG2 ATCC HB-8065, the “IC50 HepG2” value is listed as “A (an IC50 of over 100 is assigned the letter A)”.

In the case of `O=C1COc2ccc(N3C[C@@H]4CN(CCn5c(=O)ccc6ccc(Oc7cccnc7)nc65)C[C@@H]4OC3=O)nc2N1` (relative stereo) [Compound 7, rel-1-{2-[(4aS*,7aR*-2-oxo-3-{3-oxo-2H,3H,4H-pyrido[3,2-b][1,4]oxazin-6-yl}-octahydropyrrolo[3,4-e][1,3]oxazin-6-yl]ethyl}-7-(pyridin-3-yloxy)-1,2-dihydro-1,8-naphthyridin-2-one], the MIC result in series [1] is on record as “B (a MIC of from 1 to 10 is assigned the letter B)”; in [2], “C (a MIC of from 10 to 100 is assigned the letter C)”; in [3] it was “B (a MIC of from 1 to 10 is assigned the letter B)”; in [10], “A (an MIC (in μg/mL) of less or equal to 1 is assigned the letter A)”; in series [4] it was “C (a MIC of from 10 to 100 is assigned the letter C)”; in series [6] it was “A (an MIC (in μg/mL) of less or equal to 1 is assigned the letter A)”. Besides, the MIC entry in [7] was “A (an MIC (in μg/mL) of less or equal to 1 is assigned the letter A)”; in series [8], “A (an MIC (in μg/mL) of less or equal to 1 is assigned the letter A)”; in [9], “C (a MIC of from 10 to 100 is assigned the letter C)”. The “IC50 HepG2” value with HepG2 ATCC HB-8065 is given as “A (an IC50 of over 100 is assigned the letter A)”.

On to `COc1ccc2ccc(=O)n(CCN3C[C@@H]4CN(c5ccc6c(n5)NC(=O)CO6)C(=O)O[C@H]4C3)c2n1` (relative stereo) [Compound 1], for which the MIC in [1] (setting [11]) is below 1 µg/mL; in series [2] (setting [12]), 10 to 100 µg/mL (≈ 20.3 to 203 µM); in series [3] (setting [13]), below 1 µg/mL; in [10] (Mycolicibacterium smegmatis, ATCC19420, read-out: MIC), below 1 µg/mL; in [4] (setting [14]), 1 to 10 µg/mL (≈ 2.03 to 20.3 µM); in series [6] (setting [15]), below 1 µg/mL. The MIC was below 1 µg/mL in series [7] (setting [16]), below 1 µg/mL in series [8] (setting [17]) and 1 to 10 µg/mL (≈ 2.03 to 20.3 µM) in series [9] (setting [18]). The 50% inhibitory concentration (IC50) in the series on HepG2 ATCC HB-8065 was above 100 µg/mL.

In the case of `N#Cc1ccc2ccc(=O)n(CCN3CC4CN(c5ccc6c(n5)NC(=O)CO6)C(=O)O[C@H]4C3)c2c1` (stereo in doubt) [Compound 17, 1-{2-[(4aS,7aR)-2-oxo-3-{3-oxo-2H,3H,4H-pyrido[3,2-b][1,4]oxazin-6-yl}-octahydropyrrolo[3,4-e][1,3]oxazin-6-yl]ethyl}-2-oxo-1,2-dihydroquinoline-7-carbonitrile], the MIC in the series on E. coli NCTC 13476 (setting [19]) is 1 to 10 µg/mL (≈ 2.06 to 20.6 µM); in series [1] (setting [11]) it was below 1 µg/mL; in series [2] (setting [12]), 10 to 100 µg/mL (≈ 20.6 to 206 µM); in series [3] (setting [13]), below 1 µg/mL; in [4] (setting [14]) it was 1 to 10 µg/mL (≈ 2.06 to 20.6 µM); in series [5] (setting [20]) it was 1 to 10 µg/mL (≈ 2.06 to 20.6 µM). In addition, the MIC in series [6] (setting [15]) was below 1 µg/mL; in series [7] (setting [16]), below 1 µg/mL; against E. coli MG1655 WT (Escherichia coli, MG1655), below 1 µg/mL; in series [8] (setting [17]), below 1 µg/mL; with E. coli ATCC BAA-2452 (setting [21]), 1 to 10 µg/mL (≈ 2.06 to 20.6 µM); in [9] (setting [18]), 1 to 10 µg/mL (≈ 2.06 to 20.6 µM). In addition, in the series on E. coli MG1655 D87G, the “Fold increase in MIC against E. coli MG1655 D87G” value worked out at 2 fold. Further, the “Fold increase in MIC against E. coli MG1655 S83L” value in the series on E. coli MG1655 S83L is on record as 0.5 fold. Besides, the half-inhibitory concentration (IC50) with HepG2 ATCC HB-8065 was above 100 µg/mL.

As for `N#Cc1ccc2ccc(=O)n(CCN3CC4CN(c5ccc6c(n5)NC(=O)CO6)C(=O)O[C@@H]4C3)c2c1` (stereo in doubt) [Compound 12, 1-{2-[(4aR,7aS)-2-oxo-3-{3-oxo-2H,3H,4H-pyrido[3,2-b][1,4]oxazin-6-yl}-octahydropyrrolo[3,4-e][1,3]oxazin-6-yl]ethyl}-2-oxo-1,2-dihydroquinoline-7-carbonitrile], the MIC in the series with E. coli NCTC 13476 (setting [19]) was 1 to 10 µg/mL (≈ 2.06 to 20.6 µM); in series [1] (setting [11]) it was below 1 µg/mL; in series [2] (setting [12]) it was 10 to 100 µg/mL (≈ 20.6 to 206 µM); in series [3] (setting [13]) it was below 1 µg/mL; in [4] (setting [14]) it was 1 to 10 µg/mL (≈ 2.06 to 20.6 µM); in series [5] (setting [20]) it was 1 to 10 µg/mL (≈ 2.06 to 20.6 µM). For the same compound, the MIC in series [6] (setting [15]) was below 1 µg/mL; in series [7] (setting [16]), below 1 µg/mL; in the series on E. coli MG1655 WT (Escherichia coli, MG1655) it was below 1 µg/mL; in [8] (setting [17]), below 1 µg/mL; with E. coli ATCC BAA-2452 (setting [21]) it was below 1 µg/mL; in [9] (setting [18]), 1 to 10 µg/mL (≈ 2.06 to 20.6 µM). Further, the “Fold increase in MIC against E. coli MG1655 D87G” value in the series on E. coli MG1655 D87G is given as 1 fold. Also, in the series with E. coli MG1655 S83L, the “Fold increase in MIC against E. coli MG1655 S83L” value turned out to be 1 fold. Also, the concentration for half-maximal inhibition (IC50) with HepG2 ATCC HB-8065 was above 100 µg/mL.

For the origin of these results see patent US20210179636A1, “ANTIBACTERIAL COMPOUNDS” (priority 2016, published 2021).
